Data reported in patent publication EP3964497A1, “SUBSTITUTED VICINAL DIAMINE COMPOUNDS AND THEIR USE IN THE TREATMENT, AMELIORATION OR PREVENTION OF PAIN” (priority 2020, dated 2022).
Like-named read-outs stand apart in the source and are kept apart here.

How the values were obtained:
δOR = biological target: T1, δOR (Homo sapiens, UniProt P41143); experiment: competitive radioligand binding with [3H]diprenorphine, membranes of transfected HEK 293T cells
T1 construct: expressed in transfected cells; host or cells: HEK 293T cells, transient transfection, membrane preparation
Method: (§1) To verify the subtype selectivity of the described compounds for µOR over δOP and κOR, respectively, the binding affinities of the described examples to the different human opioid receptors in an in-vitro test system were measured.
(§2) For the determination of receptor binding affinity competitive radioligand binding experiments were performed as described in literature (H. Huebner, C. Haubmann, W. Utz, P. Gmeiner, J. Med. Chem., 2000, 43, 756-762). In brief, HEK 293T cells were transiently transfected with the cDNAs coding for the human opioid receptor subtypes µOR, δOR, and kOR, respectively, using a solution of polyethylenimine in PBS (PEI, linear, 25 kDa, Polysciences) as transfection reagent at a 3:1 PEI to cDNA ratio (I. Fish, A. Stoessel, K. Eitel, C. Valant, S. Albold, H. Huebner, D. Moeller, M.J. Clark, R.K. Sunahara, A. Christopoulos, B.K. Shoichet, P. Gmeiner, J. Med. Chem., 2017, 60, 9239-9250). After preparation of membranes, radioligand displacement assays were run in 96-well format at a final volume of 200 µL in binding buffer (50 mM Tris-HCI, 1 mM EDTA, 5 mM MgCl2, 100 µg/mL bacitracin, 5 µg/mL soybean trypsin inhibitor, pH 7.4) with the radioligand [^3H]diprenorphine (specific activity = 31 Ci/mmol) at a final concentration of 0.20-0.30 nM. […] Unspecific binding was determined in the presence of 10 µM of the naloxone. Protein concentrations were determined employing the method of Lowry with bovine serum albumin as standard (O.H. Lowry, N.J. Rosebrough, A.L. Farr, R.J. Randall, J. Biol. Chem., 1951, 193, 265-275). The resulting competition curves of the receptor binding experiments were analyzed by nonlinear regression. The data were initially fit using a sigmoid model to provide IC50 values, which were subsequently transformed to Ki values according to the equation of Cheng and Prusoff (Y.-C. Cheng, W. H. Prusoff, Biochem. Pharmacol., 1973, 22, 3099-3108). Three to seven experiments per compound were performed, with each concentration in triplicate.

κOR = biological target: T2, κOR (Homo sapiens, UniProt P41145); experiment: as above
T2 construct: expressed in transfected cells; host or cells: HEK 293T cells, transient transfection, membrane preparation
Method: as §1
After preparation of membranes, radioligand displacement assays were run in 96-well format at a final volume of 200 µL in binding buffer (50 mM Tris-HCI, 1 mM EDTA, 5 mM MgCl2, 100 µg/mL bacitracin, 5 µg/mL soybean trypsin inhibitor, pH 7.4) with the radioligand [^3H]diprenorphine (specific activity = 31 Ci/mmol) at a final concentration of 0.20-0.30 nM. […] Unspecific binding was determined in the presence of 10 µM of the naloxone. […] The resulting competition curves of the receptor binding experiments were analyzed by nonlinear regression. […] Three to seven experiments per compound were performed, with each concentration in triplicate.

µOR [1] = biological target: T3, µOR (Homo sapiens, UniProt P35372); experiment: G-protein mediated signaling, IP1 accumulation assay (HTRF) in HEK-293T cells with hybrid G-protein Gαqi; assay type: cell-based; set-up: expressed in transfected cells; host or cells: HEK-293T cells, transient transfection; settings: for Emax: HEK-293T, read-out: G-protein signaling Emax
Method: (§3) Functionally selective drugs, which are biased towards Gi protein activation over β-arrestin signaling at the µOR are indicated to show an improved side effect profile. Thus, the characterization of the functional properties of the described examples at the µOR were performed by determination of the ligand stimulated G-protein related signaling and β-arrestin recruitment applying cell based in-vitro test systems. Full and partial agonists as well as antagonists for G protein related signaling were identified.
The determination of G-protein stimulated µOR activation was measured applying an IP1 accumulation assay as described previously (J. Kruell, S.K. Fehler, L. Hofmann, N. Nebel, S. Maschauer, O. Prante, P. Gmeiner, H. Lanig, H. Huebner, M.R. Heinrich. ChemMedChem 2020, 15, 1175-1186. C. Gentzsch, K. Seier, A. Drakopoulos, M.-L. Jobin, Y. Lanoiselee, Z. Koszegi, D. Maurel, R. Sounier, H. Huebner, P. Gmeiner, S. Granier, D. Calebiro, M. Decker. Ang. Chem. Int. Ed. 2020, 59, 2-9). In brief, HEK-293T cells were grown to confluence of approximately 70% and transiently transfected with the cDNA of the human µOR receptor and the hybrid G-protein Gαqi. After one day cells were seeded into 384-well microplates. For testing cells were incubated with test compounds (final range of concentration from 1 pM up to 10 µM) for 180 min at 37 °C followed by addition of detection reagents. Time resolved fluorescence resonance energy transfer (HTRF) was determined using a microplate reader. Each compound was tested in duplicates in 3-9 individual experiments in comparison to the reference compound DAMGO. The resulting dose response curves were analyzed by nonlinear regression using the algorithms in PRISM 6.0 (GraphPad software, San Diego, CA), fitted with a sigmoid model and normalized to basal activity (0 %) and the maximal effect caused by the reference full agonist DAMGO (100 %).
(§4) In the above table, the numbers indicate mean EC50 values in nM and Emax values relative to the full effect of reference agonist DAMGO [=100%], respectively and are derived from 3-9 individual experiments for G-protein signaling and 3-8 tests for arrestin recruitment. ND = not determined.

µOR [2] = biological target: T3, µOR; experiment: competitive radioligand binding with [3H]diprenorphine, membranes of transfected HEK 293T cells; set-up: expressed in transfected cells; host or cells: HEK 293T cells, transient transfection, membrane preparation
Method: as §1, §2

µOR [3] = biological target: T3, µOR; experiment: β-arrestin-2 recruitment, enzyme-fragment complementation assay in HEK-293 cells; assay type: cell-based; set-up: expressed in transfected cells; host or cells: HEK-293 cells stably expressing EA-tagged β-arrestin-2, transiently transfected with µOR-PK1; settings: for Emax: HEK293, relative to the full effect of reference agonist DAMGO [=100%]; for β-arrestin recruitment EC50: mean of 3-8 tests, 90 min incubation, CBA = could not be analyzed (no dose-response curve)
Method: as §3
Measurement of β-arrestin-2 recruitment was done applying an enzyme-fragment complementation assay as described previously (C. Gentzsch, K. Seier, A. Drakopoulos, M.-L. Jobin, Y. Lanoiselee, Z. Koszegi, D. Maurel, R. Sounier, H. Huebner, P. Gmeiner, S. Granier, D. Calebiro, M. Decker. Ang. Chem. Int. Ed. 2020, 59, 2-9. J. Hellmann, M. Drabek, J. Yin, J. Gunera, T. Proell, F. Kraus, C.J. Langmead, H. Huebner, D. Weikert, P. Kolb, D.M. Rosenbaum, P. Gmeiner. PNAS 2020, 117, 18059-18067). In brief, HEK-293 cells stably expressing the enzyme acceptor (EA) tagged β-arrestin-2 fusion protein were transiently co-transfected with the ProLink tagged µOR-PK1 After 24 h cells were transferred into 384-well microplates and cultured for further 24 h. To start arrestin recruitment compounds were added to the cells to get a final concentration in a range of 10 pM to 100 µM. After incubation for 90 min reaction was stopped by addition of detection mix. Chemiluminescence was determined in duplicates (3-8 individual experiments for each compound in comparison to the reference agonist DAMGO). Data analysis was done as described above.
as §4

[4] = radioligand [3H]diprenorphine, number in brackets = number of experiments, read-out: mean Ki value κOR
[5] = radioligand [3H]diprenorphine, number in brackets = number of experiments, read-out: mean Ki value δOR

SMILES	Ki (δOR) [nM]	Ki (κOR) [nM]	EC50 (µOR [1]) [nM]	Emax (µOR [1]) [%]	Ki (µOR [2]) [nM]	EC50 (µOR [3]) [nM]	Emax (µOR [3]) [%]	EC50 (µOR [1]; mean of 3-9 experiments, 180 min at 37 °C, CBA = could not be analyzed (no dose-response curve), read-out: G-protein signaling EC50) [nM]	β-arrestin recruitment EC50 (µOR [3])	Ki (κOR; [4]) [nM]	Ki (δOR; [5]) [nM]	binding to δOR (in words) (δOR; statement in text referring to the radioligand binding table)	Ki (µOR [2]; radioligand [3H]diprenorphine, number in brackets = number of experiments, read-out: mean Ki value µOR) [nM]	G-protein signaling EC50 (µOR [1]; mean of 3-9 experiments, 180 min at 37 °C, CBA = could not be analyzed (no dose-response curve))
CN(C)[C@H](CNC(=O)/C=C/c1cccc2ccccc12)Cc1ccc(C(N)=O)cc1 [Example 18, (S,E)-4-(2-(Dimethylamino)-3-(3-(naphthalen-1-yl)acrylamido)propyl)benzamide formiate]	130	200	9.8	92	6.2	120	4							
NC(=O)c1ccc(C[C@H](N)CNC(=O)/C=C/c2cccc(C(F)(F)F)c2)cc1 [Example 14, (S,E)-4-(2-Amino-3-(3-(3-(trifluoromethyl)phenyl)acrylamido)propyl)benzamide formiate]	2900	5600		75	460		< 5	2200	CBA					
CN(C)[C@H](CNC(=O)/C=C/c1ccsc1)Cc1ccc(O)cc1 [Example 19, (S,E)-N-(2-(Dimethylamino)-3-(4-hydroxyphenyl)propyl)-3-(thiophen-3-yl)acrylamide]	59		7.5	53	8.5		< 5		CBA	130				
CN(C)[C@H](CNC(=O)/C=C/c1ccccc1C(F)(F)F)Cc1ccc(O)cc1 [Example 7, (S,E)-N-(2-(Dimethylamino)-3-(4-hydroxyphenyl)propyl)-3-(2-(trifluoromethyl)phenyl)acrylamide]			13	44	28		< 5		CBA	140	180			
CN(C)[C@H](CNC(=O)C=Cc1ccccc1)Cc1ccc(O)cc1 (stereo in doubt) [Example 1, (S)-N-(2-(Dimethylamino)-3-(4-hydroxyphenyl)propyl)cinnamamide]	25		7	63	13		< 5		CBA	120		high affinity		
CN(C)[C@H](CNC(=O)/C=C/c1ccc(C(F)(F)F)cc1)Cc1ccc(O)cc1 [Example 9, (S,E)-N-(2-(Dimethylamino)-3-(4-hydroxyphenyl)propyl)-3-(4-(trifluoromethyl)phenyl)acrylamide]			67	92			< 5		CBA	2800	1100		170	
CN(C)[C@H](CNC(=O)/C=C/c1cccc(C(F)(F)F)c1)Cc1ccc(C(N)=O)cc1 [Example 15, (S,E)-4-(2-(Dimethylamino)-3-(3-(3-(trifluoromethyl)phenyl)acrylamido)propyl)benzamide formiate]	55	450	6.3	95	6.7	130	5							
Cc1cc(O)cc(C)c1C[C@H](N)CNC(=O)/C=C/c1ccccc1 [Example 10, (S)-N-(2-Amino-3-(4-hydroxy-2,6-dimethylphenyl)propyl)cinnamamide formiate]	510	440		< 5	58		< 5		CBA					CBA
